Data from patent US9987381B2, “Radioligands for imaging the LPA-1 receptor” (BRISTOL-MYERS SQUIBB COMPANY, priority 2013, dated 2018).
Blank lines part the entries; values can stand above or below the compound they belong to.

How the values were obtained:
[1] = target: T1, LPA1 receptor (Mus musculus, UniProt P61793); assay: In vitro autoradiography of mouse lung sections: [18F] radioligand binding and displacement by blocking compound; conditions: for displacement of [18F] radioligand vs total binding: 3.9 nM radioligand
T1 construct: Fresh tissues from naïve mouse lungs and bleomycin treated lungs were immersed into OCT; from tissue; host or cells: lung sections (10 µm) of naïve and bleomycin-treated female C57BL/6 mice
T1 sequence (P61793 whole entry): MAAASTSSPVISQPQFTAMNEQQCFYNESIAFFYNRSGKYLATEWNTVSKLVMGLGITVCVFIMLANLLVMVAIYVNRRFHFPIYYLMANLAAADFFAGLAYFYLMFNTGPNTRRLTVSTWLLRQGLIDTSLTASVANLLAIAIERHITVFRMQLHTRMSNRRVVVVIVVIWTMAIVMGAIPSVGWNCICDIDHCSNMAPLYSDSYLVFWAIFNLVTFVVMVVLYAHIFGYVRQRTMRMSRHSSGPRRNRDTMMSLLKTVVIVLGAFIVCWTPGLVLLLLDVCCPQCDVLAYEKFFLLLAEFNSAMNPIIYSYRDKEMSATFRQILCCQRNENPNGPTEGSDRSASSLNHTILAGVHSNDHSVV
Procedure: The naïve lung mouse tissues were collected from female C57BL/6 mice (8-10 weeks old; 18-25 grams), the samples were stored in −80° C. degree freezer until use. The bleomycin treated animals consists of female C57BL/6 mice (8-10 weeks old; 18-25 grams) were anesthetized with 5% isoflurane the day before study initiation. Bleomycin was dissolved into sterile phosphate buffered saline to a concentration of 500 μg/ml. For injection, mice were anesthetized with 5% isoflurane and using a 1 cc syringe with a 27 g needle, 100 μl of the stock bleomycin solution was injected subcutaneously (SC) into the center of each shaved region (50 μg/site). The bleomycin was administered 5 days/week, Monday through Friday, and was injected into the same region each day until Day 28. Specifically the left lobe of lung was harvested and inflated using a 1:1 OCT (which consists of a mixture 10.24% w/w polyvinyl alcohol 4.26% w/w polyethylene glycol 85.50 w/w non-reactive ingredients)/phosphate buffered saline mixture.
Fresh tissues from naïve mouse lungs and bleomycin treated lungs were immersed into OCT and chilled in 2-methylbutane for 2-5 minutes until frozen. The tissues were then wrapped in foil/ZIPLOC® bag and stored at −80° C. Tissue sections of 10 μm thickness (collected as 2 sections/slide) were cut using a cryostat and thaw-mounted on glass microscope slides, allowed to air dry for approximately 30 minutes. Blocking studies with 1-(4′-(3-methyl-4-(((l-phenylethoxy)carbonyl)amino)isoxazol-5-yl)-[1,1′-biphenyl]-4-yl)cyclopropanecarboxylic acid at 0.1 nM, 1 nM and 10 nM respectively were conducted using the following conditions. The individual slides, 4 slides per concentration, were pre-incubated in a mixture of 50 mM Hepes, […], pH=7.4 and 0.05% Tween-20 buffer solution that contains only this buffer (total binding), as well as […] 1-(4′-(3-methyl-4-(((l-phenylethoxy)carbonyl)amino)isoxazol-5-yl)-[1,1′-biphenyl]-4-yl)cyclopropanecarboxylic acid, 1 nM 1-(4′-(3-methyl-4-(((1-phenylethoxy)carbonyl)amino)isoxazol-5-yl)-[1,1′-biphenyl]-4-yl)cyclopropanecarboxylic acid and 10 nM 1-(4′-(3-methyl-4-(((1-phenylethoxy)carbonyl)amino)isoxazol-5-yl)-[1,1′-biphenyl]-4-yl)cyclopropanecarboxylic acid for a 3 hour period. These individual slides were then incubated in the buffer solution containing 3.9 nM of [^18F]-1-(4′-(4-((((3-(fluoromethyl)benzyl)oxy)carbonyl)amino)-3-methylisoxazol-5-yl)-[1,1′-biphenyl]-4-yl)cyclopropanecarboxylic acid that was formulated in 10% ethanol 90% 0.5% sodium bicarbonate. This solution was diluted with 300 ml of buffer solution to generate a stock solution. From this stock solution, 40 ml was added to each incubation chamber. One of these chambers contained only the radioligand buffer solution, which is referred to as the total binding section. An additional 40 ml was added to each incubation chamber along with the relevant concentration of blocking compound (1-(4′-(3-methyl-4-(((1-phenylethoxy)carbonyl)amino)isoxazol-5-yl)-[1,1′-biphenyl]-4-yl)cyclopropanecarboxylic acid at 0.1 nM, 1 nM, 10 nM). Then the individual slides were incubated in the buffer solution containing the [^18F]-1-(4′-(4-((((3-(fluoromethyl)benzyl)oxy)carbonyl)amino)-3-methylisoxazol-5-yl)-[1,1′-biphenyl]-4-yl)cyclopropanecarboxylic acid radioligand and blocking compound for 1.5 hours at room temperature to reach maximum binding. After 4.5 hours of total incubation, slides from each treatment group were removed from the incubation solutions and placed in an ice-cold wash buffer (50 mM Hepes, 100 mM NaCl, and 0.05% Tween-20, pH=7.4) and rinsed 4 times. Slides were then dried under a stream of cold air for approximately 1 hour. The air-dried slides were exposed by placing the slides onto an imaging plate (BAS-SR 3545S) for 15 minutes at room temperature. The imaging plate was scanned using the bioimaging analyzer (Fujifilm Fluorescent Image Analyzer, FLA-9000). The pixel size of the autoradiogram images was 100 μm. […]

[2] = target: T2, LPA1 (Macaca mulatta, UniProt H9EN64); assay: PET blocking study of [11C]-BMT-136088 with BMS-986020; format: in vivo, rhesus monkeys
T2 construct: from tissue; host or cells: lung of living anaesthetised rhesus monkeys (in vivo PET)
T2 sequence (H9EN64 1-364): as the sequence (P61793 whole entry) above, with A4I, S8I, Q22P, Y40H, V61I, D193E, H194N, V269I, N331S, N335S counted along it
Procedure: For the blocking data reanalyzed here, each animal was scanned twice during the administration of [^11C]-BMT-136088, using a bolus plus infusion (B+I) protocol: at baseline first, then during the administration of the blocking drug, BMS-986020, also using a bolus plus infusion protocol.
In the blocking study, BMS-986020 was administered i.v. using a 10-min bolus ([…]) followed by a ˜230 min infusion (0.25 mg/kg/hr) for a total dose of 1.224±0.015 mg/kg.
Two rhesus monkeys were included in the blocking, test-retest, and saturation studies: one male, one female; age=4.8±0.8 y; weight=8.6±0.4 kg. Studies in the same animal were separated by at least 2 weeks to allow the animal to recover from anesthesia and other effects. Four rhesus monkeys (2M, 2F) were included in the dosimetry study.
Following a low-dose, CT scan used for attenuation correction and to delineate the lung regions of interest, [^11C]-BMT-136088 was injected using a computer-control pump with a bolus plus infusion protocol, with an initial 1-min bolus and a ˜119-min infusion. The volume injected during the initial bolus represented 100 min (Kbol) worth of infusion in the blocking and test-retest study, and 300 min worth of infusion in the saturation study.
Beginning at the start of each injection, a 120-minute time-of-flight list-mode acquisition on the mCT PET/CT scanner (Siemens Medical Solutions USA, Inc.) was performed. Dynamic PET scan data were reconstructed with corrections for point-spread function, attenuation, normalization, scatter, randoms, and dead time using a 3D OP-OSEM TOF algorithm. PET images were reconstructed into 33 frames, with the following frame timing: 6×30 sec; 3×1 min; 2×2 min; 22×5 min. Each frame contained 400×400×111 (x,y,z) voxels (2.04×2.04×2.0 mm).
Blood samples for PK for each blockade study session were obtained at −1, 60, 90, 120, 150, 210, 240 and 270 minutes after the start of BMS-986020 bolus plus infusion. Red cells were precipitated at 3200 rpm for 10 minutes at 10° C.; the plasma was divided into two aliquots and frozen at −80° C. until shipped for analysis. […]

radioligand displacement (FIG. 2) ([1]; 10 nM blocking compound, naïve and bleomycin treated mouse lung sections): ~80%
displacement of [18F] radioligand vs total binding ([1]; bleomycin treated mouse lung tissue sections, 0.1 nM blocking compound): 11.3+/−4.2%
displacement of [18F] radioligand vs total binding ([1]; bleomycin treated mouse lung tissue sections, 1 nM blocking compound): 55.5+/−2.3%
displacement of [18F] radioligand vs total binding ([1]; bleomycin treated mouse lung tissue sections, 10 nM blocking compound): 82.7%+/−1.4
displacement of [18F] radioligand vs total binding ([1]; naïve mouse lung tissue sections, 0.1 nM blocking compound): 18.2+/−7.6%
displacement of [18F] radioligand vs total binding ([1]; naïve mouse lung tissue sections, 1 nM blocking compound): 57.3+/−2.6%
displacement of [18F] radioligand vs total binding ([1]; naïve mouse lung tissue sections, 10 nM blocking compound): 72.6%+/−6.7
SMILES: Cc1noc(-c2ccc(-c3ccc(C4(C(=O)O)CC4)cc3)cc2)c1NC(=O)OC(C)c1ccccc1 (centres unmarked) [1-(4′-(3-methyl-4-(((1-phenylethoxy)carbonyl)amino)isoxazol-5-yl)-[1,1′-biphenyl]-4-yl)cyclopropanecarboxylic acid]

blockade effect ([2]; VT by MA1, all corrections incl. lung density and blood radioactivity, BMS-986020 i.v. bolus plus infusion): 54±11%
occupancy of LPA1 binding ([2]; at 1.25 mg/kg): ~100%
receptor occupancy at 1.25 mg/kg ([2]; rhesus monkey, at 1.25 mg/kg, read-out: occupancy of LPA1 binding): 103 ± 20%
SMILES: Cc1noc(-c2ccc(-c3ccc(C4(C(=O)O)CC4)cc3)cc2)c1NC(=O)O[C@H](C)c1ccccc1 [BMS-986020]

localisation of radioligand binding in lung ([1]; bleomycin treated mouse lung section, trichrome collagen staining, FIG. 1): resides within positive collagen
SMILES: Cc1noc(-c2ccc(-c3ccc(C4(C(=O)O)CC4)cc3)cc2)c1NC(=O)OCc1cccc(C[18F])c1 [[^18F]-1-(4′-(4-((((3-(fluoromethyl)benzyl)oxy)carbonyl)amino)-3-methylisoxazol-5-yl)-[1,1′-biphenyl]-4-yl)cyclopropanecarboxylic acid]
